Assay results from patent US20050245399A1, “Pyrazole derivatives as herbicidal compositions containing them” (ISHIHARA SANGYO KAISHA, LTD., priority 2004, published 2005).

Legend:
Assay type in all cases: in vivo
[1] = test system: wheat (Triticum aestivum L.): TRZAX; experiment: Test Example 1 pre-emergence herbicidal activity, TRZAX; settings: visually observed 20th to 23rd day after application
Summary of the method: (§1)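 Upland soil pot test. Formulated compound (wettable powder or emulsifiable concentrate) in water, 500 L/ha, sprayed one day after sowing before emergence; % control rated by eye on day 20–23.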

[2] = test system: velvetleaf (Abutilon theophrasti): ABUTH; experiment: Test Example 1 pre-emergence herbicidal activity, ABUTH; settings: visually observed 20th to 23rd day after application
Summary of the method: as §1

[3] = test system: prickly sida (Sida spinosa L.): SEDSP; experiment: Test Example 1 pre-emergence herbicidal activity, SIDSP; settings: visually observed 20th to 23rd day after application
Summary of the method: as §1

[4] = test system: prickly sida (Sida spinosa L.), SIDSP; experiment: Test Example 2 post-emergence (foliage treatment) herbicidal activity, SIDSP
Summary of the method: (§2)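 Foliar spray of formulated compound (500 L/ha dilution water, 0.1% v/v spreader) onto young potted plants at defined leaf stages. Scored 0-100% by visual inspection 20-23 d post-spray.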

[5] = test system: wheat (Triticum aestivum L.), TRZAX; experiment: Test Example 2 post-emergence (foliage treatment) herbicidal activity, TRZAX
Summary of the method: as §2

[6] = test system: soybean (Glycine max Merr.), GLXMA; experiment: Test Example 2 post-emergence (foliage treatment) herbicidal activity, GLXMA
Summary of the method: as §2

[7] = test system: soybean (Glycine max Merr.): GLXMA; experiment: Test Example 1 pre-emergence herbicidal activity, GLXMA; settings: visually observed 20th to 23rd day after application
Summary of the method: as §1

[8] = test system: japanese ribbon wapato (Sagittaria pygmaea: SA GPY); experiment: Test Example 3 water application herbicidal activity (paddy), SAGPY; settings: 63 g a.i./ha, water application under submerged condition, tubers planted, visually observed 14th day after application; 0 = untreated control, 100 = complete kill
From the text: (§3) Paddy field soil was put into a 1/1,000,000 ha pot and seeds of barnyardgrass (Echinochiloa oryzicola: ECHOR) and japanese bulrush (Scirpus juncoides: SCPJO) were sown and slightly covered with soil. Then the pot was left to stand still in a greenhouse in a state where the depth of flooding water was from 0.5 to 1 cm, and one day later, tubers of japanese ribbon wapato (Sagittaria pygmaea: SA GPY) were planted. Thereafter, the depth of flooding water was maintained at a level of from 3 to 4 cm, and when barnyardgrass and japanese bulrush reached a 0.5 leaf stage, an aqueous diluted solution of a wettable powder or emulsifiable concentrate having the compound of the present invention formulated in accordance with a usual formulation method, was uniformly applied under submerged condition by a pipette so that the dose of the active ingredient would be at a predetermined level. On the other hand, paddy filed soil was put into a 1/1,000,000 ha pot and puddled and leveled, and the depth of flooding water was from 3 to 4 cm. One day later, rice (Oryza sativa L.: ORYSA) of 2 leaf stage was transplanted in a depth of 3 cm. On the 4th day after the transplantation, the compound of the present invention was applied in the same manner as described above. On the 14th day after the application of the herbicide, the growth of barnyardgrass, japanese burlush and japanese ribbon wapato was visually observed and on the 21st day after the application of the herbicide, the growth of rice was visually observed, and the herbicidal effects were evaluated by growth controlling degrees (%) ranging from 0 (equivalent to the untreated control) to 100 (complete kill), whereby the results shown in Table 6, were obtained. Compound Nos. in Table 6 correspond to Compound Nos. in Table 1 and 2 given hereinbefore.

[9] = test system: crabgrass (Digitaria sanguinalis L.), DIGSA; experiment: Test Example 2 post-emergence (foliage treatment) herbicidal activity, DIGSA
Summary of the method: (§4)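 Leaf stages at treatment differed per species: 1.1-2.1 for ECHCG, 1.0-2.0 for DIGSA, 0.1-1.5 for AMARE and 1.0-2 for ORYSA. Plants grew in pots of upland soil and were sprayed with wettable powder or emulsifiable concentrate in water (500 L/ha) plus spreader at 0.1% (v/v). Visual % control followed on days 20-23.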

[10] = test system: rice (Oryza sativa L.): ORYSA; experiment: Test Example 1 pre-emergence herbicidal activity, ORYSA; settings: visually observed 20th to 23rd day after application
Summary of the method: as §1

[11] = test system: rice (Oryza sativa L.: ORYSA); experiment: Test Example 3 water application herbicidal activity (paddy), transplanted rice ORYSA; settings: 63 g a.i./ha, water application 4th day after transplantation of 2 leaf stage rice, visually observed 21st day after application; 0 = untreated control, 100 = complete kill
From the text: as §3

[12] = test system: green foxtail (Setaria viridis L.): SETVI; experiment: Test Example 1 pre-emergence herbicidal activity, SETVI; settings: visually observed 20th to 23rd day after application
Summary of the method: as §1

[13] = test system: crabgrass (Digitaria sanguinalis L.): DIGSA; experiment: Test Example 1 pre-emergence herbicidal activity, DIGSA; settings: visually observed 20th to 23rd day after application
Summary of the method: as §1

[14] = test system: rice (Oryza sativa L.), ORYSA; experiment: Test Example 2 post-emergence (foliage treatment) herbicidal activity, ORYSA
Summary of the method: as §4

[15] = test system: barnyardgrass (Echinochiloa oryzicola: ECHOR); experiment: Test Example 3 water application herbicidal activity (paddy), ECHOR; settings: 63 g a.i./ha, water application under submerged condition at 0.5 leaf stage, visually observed 14th day after application; 0 = untreated control, 100 = complete kill
From the text: as §3

[16] = test system: redroot pigweed (Amaranthus retroflexus L.): AMARE; experiment: Test Example 1 pre-emergence herbicidal activity, AMARE; settings: visually observed 20th to 23rd day after application
Summary of the method: as §1

[17] = test system: corn (Zea mays L.): ZEAMX; experiment: Test Example 1 pre-emergence herbicidal activity, ZEAMX; settings: visually observed 20th to 23rd day after application
Summary of the method: as §1

[18] = test system: barnyardgrass (Echinochloa crus-galli L.): ECHCG; experiment: Test Example 1 pre-emergence herbicidal activity, ECHCG; settings: visually observed 20th to 23rd day after application
Summary of the method: as §1

[19] = test system: barnyardgrass (Echinochloa crus-galli L.), ECHCG; experiment: Test Example 2 post-emergence (foliage treatment) herbicidal activity, ECHCG
Summary of the method: as §4

[20] = test system: velvetleaf (Abutilon theophrasti), ABUTH; experiment: Test Example 2 post-emergence (foliage treatment) herbicidal activity, ABUTH
Summary of the method: as §2

[21] = test system: corn (Zea mays L.), ZEAMX; experiment: Test Example 2 post-emergence (foliage treatment) herbicidal activity, ZEAMX
Summary of the method: as §2

[22] = test system: japanese bulrush (Scirpus juncoides: SCPJO); experiment: Test Example 3 water application herbicidal activity (paddy), SCPJO; settings: 63 g a.i./ha, water application under submerged condition at 0.5 leaf stage, visually observed 14th day after application; 0 = untreated control, 100 = complete kill
From the text: as §3

[23] = test system: redroot pigweed (Amaranthus retroflexus L.), AMARE; experiment: Test Example 2 post-emergence (foliage treatment) herbicidal activity, AMARE
Summary of the method: as §4

[24] = test system: green foxtail (Setaria viridis L.), SETVI; experiment: Test Example 2 post-emergence (foliage treatment) herbicidal activity, SETVI
Summary of the method: as §2

Row | Compound | Pre-emergence Herbicidal Activity TRZAX (growth controlling degree) ([1]; Rate 63 g a.i./ha) [%] | Pre-emergence Herbicidal Activity ABUTH (growth controlling degree) ([2]; Rate 63 g a.i./ha) [%] | growth controlling degree, SIDSP ([4]; 63 g a.i./ha) [%] | growth controlling degree, TRZAX ([5]; 63 g a.i./ha) [%] | growth controlling degree, GLXMA ([6]; 63 g a.i./ha) [%] | Pre-emergence Herbicidal Activity GLXMA (growth controlling degree) ([7]; Rate 63 g a.i./ha) [%] | growth controlling degrees (%) SAGPY [8] [%] | growth controlling degree, DIGSP ([9]; 63 g a.i./ha) [%] | Pre-emergence Herbicidal Activity ORYSA (growth controlling degree) ([10]; Rate 63 g a.i./ha) [%] | growth controlling degrees (%) ORYSA [11] [%] | Pre-emergence Herbicidal Activity SETVI (growth controlling degree) ([12]; Rate 63 g a.i./ha) [%] | Pre-emergence Herbicidal Activity DIGSP (growth controlling degree) ([13]; Rate 63 g a.i./ha) [%] | growth controlling degree, ORYSA ([14]; 63 g a.i./ha) [%] | growth controlling degrees (%) ECHOR [15] [%] | Pre-emergence Herbicidal Activity AMARE (growth controlling degree) ([16]; Rate 63 g a.i./ha) [%] | Pre-emergence Herbicidal Activity ZEAMX (growth controlling degree) ([17]; Rate 63 g a.i./ha) [%] | growth controlling degree, ECHCO ([19]; 63 g a.i./ha) [%] | growth controlling degree, ABUTH ([20]; 63 g a.i./ha) [%] | growth controlling degree, ZEAMX ([21]; 63 g a.i./ha) [%] | growth controlling degrees (%) SCPJO [22] [%] | also measured
1 | COc1c(Cl)cc(F)c(-c2nn(C)c(OC(F)F)c2Cl)c1NC(=O)c1ccc(C#N)cc1 [Compound 1-32] | 10 | 100 | 100 | 50 | 80 | 10 | 100 | 70 | 60 | 50 | 100 | 100 | 90 | 100 | 100 | 10 | 95 | 100 | 95 | 70 | Pre-emergence Herbicidal Activity SIDSP (growth controlling degree) ([3]; Rate 63 g a.i./ha): 100%; Pre-emergence Herbicidal Activity ECHCG (growth controlling degree) ([18]; Rate 63 g a.i./ha): 95%; growth controlling degree, AMARE ([23]; 63 g a.i./ha): 100%
2 | Cn1nc(-c2c(F)cc(Cl)c(OC(F)F)c2NS(C)(=O)=O)c(Cl)c1OC(F)F [Compound 1-84] | 0 | 0 | 70 | 0 | 50 | 0 | 95 | 0 | 10 | 30 | 20 | 50 | 10 | 60 | 70 | 0 | 20 | 80 | 20 | 90 | Pre-emergence Herbicidal Activity SIDSP (growth controlling degree) ([3]; Rate 63 g a.i./ha): 0%; growth controlling degree, SETVI ([24]; 63 g a.i./ha): 10%; Pre-emergence Herbicidal Activity ECHCG (growth controlling degree) ([18]; Rate 63 g a.i./ha): 0%
3 | CCOC(=O)Nc1c(OC)c(Cl)cc(F)c1-c1nn(C)c(OC(F)F)c1Cl [Compound 1-273] | 0 | 10 | 90 | 20 | 60 | 0 | 0 | 20 | 10 | 30 | 20 | 30 | 10 | 70 | 80 | 0 | 30 | 98 | 10 | 0 | Pre-emergence Herbicidal Activity ECHCG (growth controlling degree) ([18]; Rate 63 g a.i./ha): 0%; growth controlling degree, AMARE ([23]; 63 g a.i./ha): 100%
4 | COc1c(Cl)cc(F)c(-c2nn(C)c(OC(F)F)c2Cl)c1[N+](=O)[O-] [Compound 2-21, 4-chloro-3-(4-chloro-6-fluoro-3-methoxy-2-nitrophenyl)-5-(difluoromethoxy)-1-methyl-1H-pyrazole] | – | – | – | – | – | – | 100 | – | – | 40 | – | – | – | 100 | – | – | – | – | – | 98 | growth controlling degree, SIDSP ([4]; 31 g a.i./ha): 100%; growth controlling degree, TRZAX ([5]; 31 g a.i./ha): 40%; growth controlling degree, GLXMA ([6]; 31 g a.i./ha): 90%; growth controlling degree, DIGSP ([9]; 31 g a.i./ha): 95%; growth controlling degree, SETVI ([24]; 31 g a.i./ha): 100%; growth controlling degree, ORYSA ([14]; 31 g a.i./ha): 90%; growth controlling degree, ECHCO ([19]; 31 g a.i./ha): 100%; growth controlling degree, ABUTH ([20]; 31 g a.i./ha): 100%; growth controlling degree, ZEAMX ([21]; 31 g a.i./ha): 80%; growth controlling degree, AMARE ([23]; 31 g a.i./ha): 100%
5 | [3-chloro-6-[4-chloro-5-(difluoromethoxy)-1-methyl-1H-pyrazol-3-yl]-5-fluoro-2-methoxyphenyl]2-propynyl-formamide [Compound 1-7] | – | – | 100 | 10 | 50 | – | 0 | 10 | – | 20 | – | – | 40 | 95 | – | – | 50 | 100 | 40 | 60 | Pre-emergence Herbicidal Activity TRZAX (growth controlling degree) ([1]; Rate 125 g a.i./ha): 20%; Pre-emergence Herbicidal Activity ABUTH (growth controlling degree) ([2]; Rate 125 g a.i./ha): 80%; Pre-emergence Herbicidal Activity SIDSP (growth controlling degree) ([3]; Rate 125 g a.i./ha): 90%; Pre-emergence Herbicidal Activity GLXMA (growth controlling degree) ([7]; Rate 125 g a.i./ha): 10%; Pre-emergence Herbicidal Activity ORYSA (growth controlling degree) ([10]; Rate 125 g a.i./ha): 20%; growth controlling degree, SETVI ([24]; 63 g a.i./ha): 70%; Pre-emergence Herbicidal Activity SETVI (growth controlling degree) ([12]; Rate 125 g a.i./ha): 95%; Pre-emergence Herbicidal Activity DIGSP (growth controlling degree) ([13]; Rate 125 g a.i./ha): 100%; Pre-emergence Herbicidal Activity AMARE (growth controlling degree) ([16]; Rate 125 g a.i./ha): 100%; Pre-emergence Herbicidal Activity ZEAMX (growth controlling degree) ([17]; Rate 125 g a.i./ha): 0%; Pre-emergence Herbicidal Activity ECHCG (growth controlling degree) ([18]; Rate 125 g a.i./ha): 70%
